Measurements: paper PMC6751662, “Pharmacological and functional similarities of the human neuropeptide Y system in C. elegans challenges phylogenetic views on the FLP/NPR system” (Cell Communication and Signaling : CCS, 2019)

Experiments:
[1] = biological target: T1, PrRPR (Homo sapiens, UniProt P49683); assay: IP accumulation assay, endogenous Gαq coupling, PrRPR; assay type: cell-based; conditions: transiently transfected HEK293 cells, mean of at least three independent experiments
T1 construct: expressed in transfected cells; host or cells: HEK293, transient
T1 sequence (P49683 1-370): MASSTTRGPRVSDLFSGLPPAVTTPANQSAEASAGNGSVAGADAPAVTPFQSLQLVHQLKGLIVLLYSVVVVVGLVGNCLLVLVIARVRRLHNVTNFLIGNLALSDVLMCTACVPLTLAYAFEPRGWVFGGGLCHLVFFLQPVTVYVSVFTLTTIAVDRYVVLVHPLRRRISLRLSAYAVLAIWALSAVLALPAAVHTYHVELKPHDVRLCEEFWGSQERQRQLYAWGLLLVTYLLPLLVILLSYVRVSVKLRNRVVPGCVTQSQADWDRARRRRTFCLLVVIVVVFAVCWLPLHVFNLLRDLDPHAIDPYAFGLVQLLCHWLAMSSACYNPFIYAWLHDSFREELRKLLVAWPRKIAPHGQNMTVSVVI
Method: (§1) For measuring IP accumulation, HEK293 cells grown to 70–80% confluency in 6-well plates were transiently co-transfected using Metafectene Pro (2.5 μl/μg DNA; Biontex) with plasmids containing receptor and/or mock (empty pcDNA3.1) (for endogenous Gq-coupling) using 4 μg total DNA in a ratio of 3:1 following the manufacturer’s instructions. For testing Gα16- and GαΔ6qi4myr-coupling, plasmids encoding the corresponding Gα protein were co-transfected instead of mock. Gα16 is naturally promiscuous and stimulates the phospholipase C (PLC) pathway leading to IP production, while the exchange of the C-terminal four amino acids of Gαq for the corresponding residues of Gαi1 in the chimeric GαΔ6qi4myr confers the ability to couple to Gi/o protein-preferring receptors but still stimulate PLC, thus specifically redirecting downstream cellular signaling. 16 h post transfection, the cells were seeded into white 384-well plates at a density of 20,000 cells/well. Media was removed 24 h later and the cells were incubated with the indicated concentration of peptides for 1 h in HBSS + 20 mM LiCl. IP accumulation was measured with the HTRF-based IP-One Gq kit (Cisbio) on a microplate reader (Tecan Spark).
(§2) For in vitro activation, data is presented as mean ± SEM of at least three independent experiments conducted in technical triplicate. […] For the C. elegans NPRs, we considered the strongest response elicited by any of the peptides downstream of a particular receptor as the receptor’s maximal signal. This may or may not be the biological maximum that can be reached by the ‘true’ endogenous agonist. For the human receptors, the response to the established endogenous agonist reflected the maximal signal.

[2] = test system: NPR-6; assay: cAMP reporter gene assay, Gi/o (inhibition of forskolin-induced cAMP), NPR-6; assay type: cell-based, C. elegans; conditions: 1 µM forskolin set to 1.00, transiently transfected HEK293 cells, mean of at least three independent experiments
Method: Activation of Gs and Gi/o was assessed with a cAMP reporter gene assay. HEK293 cells grown to 70–80% confluency in 6-well plates were transiently co-transfected with vectors encoding the receptor and the cAMP reporter gene plasmid pGL4.29 [luc2P/CRE/Hygro] (Promega; 4 μg total, 1:1 ratio) using Metafectene Pro (3 μl/μg DNA; Biontex) following the manufacturer’s instructions. 16 h post transfection, the cells were seeded into white 384-well plates at a density of 20,000 cells/well. On the next day, the medium was removed and the cells were stimulated with 20 μl of peptide solution (or forskolin as positive control) in serum-free DMEM for 4 h. For measuring Gi/o activity, the peptide solutions additionally contained 1 μM forskolin to elevate cellular cAMP levels. After incubation, the luciferase substrate OneGlo in lysis buffer (Promega) was added and the luminescence was measured in a microplate reader Tecan Spark (Tecan). Data were analyzed with GraphPad Prism 5.03 and are shown as fold of basal or fold of forskolin in case of Gαi/o activity.
as §2

[3] = biological target: T2, Y4R (Homo sapiens, UniProt P50391); assay: IP accumulation assay, chimeric GαΔ6qi4myr, Y4R; assay type: cell-based; conditions: chimeric GαΔ6qi4myr co-transfected, transiently transfected HEK293 cells, mean of at least three independent experiments
T2 construct: expressed in transfected cells; host or cells: HEK293, transient
Method: as §1, §2

[4] = biological target: T3, NPR-1 (Caenorhabditis elegans, UniProt Q18534); assay: cAMP reporter gene assay, Gi/o (inhibition of forskolin-induced cAMP), NPR-1; assay type: cell-based, C. elegans; design: host or cells: HEK293; conditions: inhibition of cAMP production induced by 1 µM forskolin (set to 1.00), lower = higher Gi/o activity, transiently transfected HEK293 cells, mean of at least three independent experiments
T3 sequence (Q18534 1-457): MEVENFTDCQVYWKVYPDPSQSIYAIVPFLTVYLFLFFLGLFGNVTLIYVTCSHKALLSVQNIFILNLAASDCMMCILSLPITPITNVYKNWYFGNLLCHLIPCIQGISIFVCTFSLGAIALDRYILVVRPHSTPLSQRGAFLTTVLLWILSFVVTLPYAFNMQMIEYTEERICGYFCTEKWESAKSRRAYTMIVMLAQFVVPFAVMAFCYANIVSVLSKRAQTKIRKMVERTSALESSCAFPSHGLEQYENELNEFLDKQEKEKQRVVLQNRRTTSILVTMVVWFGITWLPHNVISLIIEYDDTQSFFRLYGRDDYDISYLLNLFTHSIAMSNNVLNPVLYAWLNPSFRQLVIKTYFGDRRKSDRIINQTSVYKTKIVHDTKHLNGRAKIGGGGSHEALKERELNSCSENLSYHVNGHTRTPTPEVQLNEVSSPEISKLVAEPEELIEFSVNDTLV
In short: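 HEK293 cells transiently co-transfected with receptor and CRE-luciferase reporter (pGL4.29, 1:1), seeded next day, then stimulated with peptide in serum-free DMEM for 4 h. Gi/o readings included 1 μM forskolin. Luminescence expressed as fold of basal (Gs) or fold of forskolin (Gi/o).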

[5] = biological target: T4, Y2R (Homo sapiens, UniProt P49146); assay: IP accumulation assay, chimeric GαΔ6qi4myr, Y2R; assay type: cell-based; conditions: chimeric GαΔ6qi4myr co-transfected, transiently transfected HEK293 cells, mean of at least three independent experiments
T4 construct: expressed in transfected cells; host or cells: HEK293, transient
T4 sequence (P49146 1-381): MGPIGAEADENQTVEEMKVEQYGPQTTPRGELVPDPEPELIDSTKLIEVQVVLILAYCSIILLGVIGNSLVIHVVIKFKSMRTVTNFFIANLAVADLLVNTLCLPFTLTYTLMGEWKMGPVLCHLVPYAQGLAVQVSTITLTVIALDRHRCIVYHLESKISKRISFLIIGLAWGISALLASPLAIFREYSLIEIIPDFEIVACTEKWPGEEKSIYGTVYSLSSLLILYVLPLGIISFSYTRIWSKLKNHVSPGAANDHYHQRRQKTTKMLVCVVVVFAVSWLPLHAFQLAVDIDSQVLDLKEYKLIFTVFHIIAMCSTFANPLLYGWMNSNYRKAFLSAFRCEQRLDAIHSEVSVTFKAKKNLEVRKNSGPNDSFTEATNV
Method: as §1, §2

T2 sequence (P50391 whole entry): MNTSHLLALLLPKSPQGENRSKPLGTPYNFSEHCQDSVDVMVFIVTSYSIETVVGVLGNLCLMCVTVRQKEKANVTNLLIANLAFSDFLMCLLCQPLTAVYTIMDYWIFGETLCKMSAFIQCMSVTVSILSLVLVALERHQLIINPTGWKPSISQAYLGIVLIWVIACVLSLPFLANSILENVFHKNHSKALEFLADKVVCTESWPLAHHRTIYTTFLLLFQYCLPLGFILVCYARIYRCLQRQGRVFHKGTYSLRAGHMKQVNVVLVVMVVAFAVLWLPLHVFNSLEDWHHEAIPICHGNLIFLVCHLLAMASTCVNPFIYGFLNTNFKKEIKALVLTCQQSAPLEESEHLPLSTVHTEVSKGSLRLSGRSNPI

Substance: TPDINPAWYASRGIRPVGRF-NH2 [PrRP20, human prolactin-releasing peptide, 20 residues, reference compound]
- IP accumulation, x-fold of basal (mean), PrRPR# ([1]; 0.1 µM peptide): 26.01 x-fold of basal
- IP accumulation, x-fold of basal (mean), PrRPR# ([1]; 10 µM peptide): 27.38 x-fold of basal
- cAMP, x-fold of forskolin (mean), NPR-6 ([2]; 0.1 µM peptide): 0.96 x-fold of forskolin
- cAMP, x-fold of forskolin (mean), NPR-6 ([2]; 10 µM peptide): 1.19 x-fold of forskolin
- IP accumulation, x-fold of basal (mean), Y4R ([3]; 0.1 µM peptide): 0.80 x-fold of basal
- IP accumulation, x-fold of basal (mean), Y4R ([3]; 10 µM peptide): 0.89 x-fold of basal
- cAMP, x-fold of forskolin (mean), NPR-1 ([4]; 0.1 µM peptide): 1.14 x-fold of forskolin
- cAMP, x-fold of forskolin (mean), NPR-1 ([4]; 10 µM peptide): 1.45 x-fold of forskolin
- IP accumulation, x-fold of basal (mean), Y2R ([5]; 0.1 µM peptide): 0.81 x-fold of basal
- IP accumulation, x-fold of basal (mean), Y2R ([5]; 10 µM peptide): 5.05 x-fold of basal

Substance: TSGPLGNLAEELNGYSRKKGGFSFRF-NH2 [QRFP26, human pyroglutamylated RFamide peptide, 26 residues, reference compound]
- IP accumulation, x-fold of basal (mean), PrRPR# ([1]; 0.1 µM peptide): 1.06 x-fold of basal
- IP accumulation, x-fold of basal (mean), PrRPR# ([1]; 10 µM peptide): 1.91 x-fold of basal
- cAMP, x-fold of forskolin (mean), NPR-6 ([2]; 0.1 µM peptide): 0.97 x-fold of forskolin
- cAMP, x-fold of forskolin (mean), NPR-6 ([2]; 10 µM peptide): 0.93 x-fold of forskolin
- IP accumulation, x-fold of basal (mean), Y4R ([3]; 0.1 µM peptide): 1.03 x-fold of basal
- IP accumulation, x-fold of basal (mean), Y4R ([3]; 10 µM peptide): 1.42 x-fold of basal
- cAMP, x-fold of forskolin (mean), NPR-1 ([4]; 0.1 µM peptide): 1.17 x-fold of forskolin
- cAMP, x-fold of forskolin (mean), NPR-1 ([4]; 10 µM peptide): 0.84 x-fold of forskolin
- IP accumulation, x-fold of basal (mean), Y2R ([5]; 0.1 µM peptide): 1.30 x-fold of basal
- IP accumulation, x-fold of basal (mean), Y2R ([5]; 10 µM peptide): 10.62 x-fold of basal
